Source: a flash point compilation (Sun et al. 2020)

flash point	SMILES
138.00 °C	S=C([S-])NCCNC(=S)[S-].S=C([S-])NCCNC(=S)[S-].[Mn+2].[Zn+2]
138.00 °C	S=C([S-])NCCNC(=S)[S-].[Mn+2]
163.00 °C	NCCNCCNCCNCCN
272.00 °C	O=C1OC(=O)c2cccc3cccc1c23
29.00 °C	C=C1C(CCl)(CCl)C2(Cl)C(Cl)C(Cl)C1(Cl)C2(Cl)Cl (stereo not given)
101.00 °C	C=C1CCC=C(C)CC[C@@H]2[C@@H]1CC2(C)C
297.00 °C	CC(C)(C)c1cc(CCC(=O)OCC(COC(=O)CCc2cc(C(C)(C)C)c(O)c(C(C)(C)C)c2)(COC(=O)CCc2cc(C(C)(C)C)c(O)c(C(C)(C)C)c2)COC(=O)CCc2cc(C(C)(C)C)c(O)c(C(C)(C)C)c2)cc(C(C)(C)C)c1O
110.00 °C	CC(C)=CCC/C(C)=C\CC/C(C)=C/CC/C=C(\C)CC/C=C(\C)CCC=C(C)C
121.00 °C	CC(C)C(=O)OCC(C)(C)C(OC(=O)C(C)C)C(C)C (stereo not given)
163.00 °C	CC(C)Nc1nc(Cl)nc(NC2CC2)n1
82.00 °C	CC1(C)C2CCC1(C)C(OC(=O)CSC#N)C2 (stereo not given)
216.00 °C	Cc1cc(O)c(C(C)(C)C)cc1Sc1cc(C(C)(C)C)c(O)cc1C
52.00 °C	C=Cc1ccc(C)cc1.C=Cc1cccc(C)c1.C=Cc1ccccc1C
43.00 °C	CC1=C[C@H]2C(=O)O[C@H]3C[C@@H](C/C=C(\C)C[C@@H](C)/C=C/C=C4\CO[C@H]([C@@H]1O)[C@@]42O)O[C@@]1(CC[C@H](C)[C@@H](C)O1)C3
100.00 °C	C=C(C)C1CCC2=CC(=O)CC(C)C2(C)C1 (stereo not given)
38.00 °C	CCC1CCC(CCC(=O)[O-])C1.CCC1CCC(CCC(=O)[O-])CC1.[Cu+2] (stereo not given)
307.00 °C	CCCCCC1OC1CC1OC1CCCCCCCC(=O)OCC(COC(=O)CCCCCCCC1OC1CC1OC1CCCCC)OC(=O)CCCCCCCC1OC1CC1OC1CCCCC (stereo not given)
197.00 °C	CCCCCCCCCc1ccc(OCCOCCOCCOCCOCCOCCOCCOCCOCCO)cc1
199.00 °C	CCCNCC(O)COc1ccccc1C(=O)CCc1ccccc1 (stereo not given)
113.00 °C	COc1cc(CNC(=O)CCCC/C=C/C(C)C)ccc1O
73.00 °C	C[Si]1(C)O[Si](C)(C)O[Si](C)(C)O[Si](C)(C)O[Si](C)(C)O1
85.00 °C	Cc1nn(C)c(Oc2ccccc2)c1/C=N/OCc1ccc(C(=O)OC(C)(C)C)cc1
199.00 °C	O=C(OC[C@H]1O[C@@H](OC(=O)c2cc(O)c(O)c(OC(=O)c3cc(O)c(O)c(O)c3)c2)[C@H](OC(=O)c2cc(O)c(O)c(OC(=O)c3cc(O)c(O)c(O)c3)c2)[C@@H](OC(=O)c2cc(O)c(O)c(OC(=O)c3cc(O)c(O)c(O)c3)c2)[C@@H]1OC(=O)c1cc(O)c(O)c(OC(=O)c2cc(O)c(O)c(O)c2)c1)c1cc(O)c(O)c(OC(=O)c2cc(O)c(O)c(O)c2)c1
229.00 °C	O=c1[nH]cnc2c1ncn2[C@H]1C[C@H](O)[C@@H](COP(=O)(O)OP(=O)(O)O)O1

flash point	SMILES
187.00 °C	OC[C@H]1O[C@@H](OC/C=C/c2ccccc2)[C@H](O)[C@@H](O)[C@@H]1O
41.00 °C	CCCCC(Cl)Cl [1,1-dichloropentane]
170.00 °C	N=C(N)N(c1ccccc1)c1ccccc1 [1,1-diphenylguanidine]
63.00 °C	Cc1cc(C)c(C)c(C)c1 [1,2,3,5-tetramethylbenzene]
54.00 °C	Cc1cc(C)c(C)cc1C [1,2,4,5-tetramethylbenzene]
44.00 °C	Cc1ccc(C)c(C)c1 [1,2,4-trimethylbenzene]
62.00 °C	C=Cc1ccccc1C=C [1,2-bis(ethenyl)benzene]
141.00 °C	Clc1ccc(-c2cccc(Cl)c2Cl)c(Cl)c1 [1,2-dichloro-3-(2,4-dichlorophenyl)benzene]
65.00 °C	FC(F)(F)c1ccc(Cl)c(Cl)c1 [1,2-dichloro-4-(trifluoromethyl)benzene]
57.00 °C	CCc1ccccc1CC [1,2-diethylbenzene]
99.00 °C	C=CCc1ccc(OC)c(OC)c1 [1,2-dimethoxy-4-prop-2-enylbenzene]
107.00 °C	Clc1cc(Cl)cc(Cl)c1 [1,3,5-trichlorobenzene]
27.00 °C	CC(Cl)=CCCl [1,3-dichlorobut-2-ene]
150.00 °C	CCN(C(=O)N(CC)c1ccccc1)c1ccccc1 [1,3-diethyl-1,3-diphenylurea]
2.00 °C	C1COCOC1 [1,3-dioxane]
227.00 °C	O=C(O)c1ccc2c(c1)C(=O)OC2=O [1,3-dioxo-2-benzofuran-5-carboxylic acid]
143.00 °C	O=C1OCCO1 [1,3-dioxolan-2-one]
53.00 °C	ClCC=CCCl [1,4-dichlorobut-2-ene]
140.00 °C	O=C=NCCCCCCN=C=O [1,6-diisocyanatohexane]
66.00 °C	CC12CCC(CC1=O)C2(C)C (stereo not given) [1,7,7-trimethylbicyclo[2.2.1]heptan-2-one]
126.00 °C	CC(O)CNCC(C)O (stereo not given) [1-(2-hydroxypropylamino)propan-2-ol]
86.00 °C	CCC(OCCCOC)OC(C)=O (stereo not given) [1-(3-methoxypropoxy)propyl acetate]
138.00 °C	COc1ccc(C(C)=O)cc1 [1-(4-methoxyphenyl)ethanone]
192.00 °C	C=CCOC(Cn1ccnc1)c1ccc(Cl)cc1Cl (stereo not given) [1-[2-(2,4-dichlorophenyl)-2-prop-2-enoxyethyl]imidazole]

SMILES	flash point
Cl.O=C(O)CCP(CCC(=O)O)CCC(=O)O	202.00 °C
O=P1(N(CCCl)CCCl)NCCCO1 (stereo not given)	113.00 °C
CC(C)(c1ccc(OC[C@@H]2CO2)cc1)c1ccc(OC[C@@H]2CO2)cc1	79.00 °C
CC(C)[C@H](C(=O)O[C@H](C#N)c1cccc(Oc2ccccc2)c1)c1ccc(Cl)cc1	256.00 °C
Cc1c(COC(=O)C2C(C=C(Cl)C(F)(F)F)C2(C)C)cccc1-c1ccccc1 (stereo not given)	165.00 °C
CC1=C(C(=O)Nc2ccccc2)S(=O)(=O)CCO1	219.00 °C
CCCCC(CC)Cc1c(C(=O)OOOC(=O)c2cc(O)c(O)c(O)c2)cc(O)c(O)c1O (stereo not given)	232.00 °C
CCCCOC(=O)COC(=O)c1ccccc1C(=O)OCCCC	199.00 °C
CCCOP(=S)(OCCC)OP(=S)(OCCC)OCCC	149.00 °C
CCOP(=S)(OCC)Oc1cc(C)nc(N(CC)CC)n1	113.00 °C
CCOP(=S)(OCC)Oc1ccc([N+](=O)[O-])cc1	120.00 °C
CCOP(=S)(OCC)Oc1nc(Cl)c(Cl)cc1Cl	28.00 °C
CCOP(=S)(OCC)SCSC(C)(C)C	88.00 °C
CCSC(C)CC1CC(=O)C(/C(CC)=N/OC/C=C/Cl)=C(O)C1 (stereo not given)	72.00 °C
COc1ccc2c3c1OC1C(O)C=CC4C(C2)N(C)CCC341 (stereo not given)	75.00 °C
COC(C)(C)CCCC(C)C/C=C/C(C)=C/C(=O)OC(C)C (stereo not given)	187.00 °C
COP(=O)(OC)OC1=C(Cl)C2C=CCC12 (stereo not given)	165.00 °C
COP(=S)(OC)Oc1nc(Cl)c(Cl)cc1Cl	182.00 °C
c1ccc(-c2ccccc2)cc1.c1ccc(Oc2ccccc2)cc1 [1,1'-biphenyl;phenoxybenzene]	124.00 °C
ClC(Cl)=C(Cl)C(Cl)=C(Cl)Cl [1,1,2,3,4,4-hexachlorobuta-1,3-diene]	90.00 °C
C1CCC2CCCCC2C1 (stereo not given) [1,2,3,4,4a,5,6,7,8,8a-decahydronaphthalene]	57.00 °C

SMILES	flash point
Clc1cccc(Cl)c1Cl [1,2,3-trichlorobenzene]	112.00 °C
Clc1ccc(Cl)c(Cl)c1 [1,2,4-trichlorobenzene]	110.00 °C
ClCC(Br)CBr (stereo not given) [1,2-dibromo-3-chloropropane]	77.00 °C
ClC=CCl [1,2-dichloroethene]	4.00 °C
c1cc2c3c(cccc3c1)CC2 [1,2-dihydroacenaphthylene]	125.00 °C
O=c1ccc(=O)[nH][nH]1 [1,2-dihydropyridazine-3,6-dione]	300.00 °C
Cc1ccc([N+](=O)[O-])cc1C [1,2-dimethyl-4-nitrobenzene]	107.00 °C
NC(=Nc1ccccc1)Nc1ccccc1 [1,2-diphenylguanidine]	198.00 °C
Cc1ccc(C)cc1.Cc1cccc(C)c1.Cc1ccccc1C [1,2-xylene;1,3-xylene;1,4-xylene]	25.00 °C
Clc1cc(Cl)cc(-c2cc(Cl)cc(Cl)c2)c1 [1,3-dichloro-5-(3,5-dichlorophenyl)benzene]	141.00 °C
O=[N+]([O-])c1cc(Cl)cc(Cl)c1 [1,3-dichloro-5-nitrobenzene]	140.00 °C
ClCCCCl [1,3-dichloropropane]	21.00 °C
Cc1cccc(C)c1[N+](=O)[O-] [1,3-dimethyl-2-nitrobenzene]	88.00 °C
c1ccc(-c2cccc(-c3ccccc3)c2)cc1 [1,3-diphenylbenzene]	191.00 °C
COc1cc(Cl)c(OC)cc1Cl [1,4-dichloro-2,5-dimethoxybenzene]	161.00 °C
O=[N+]([O-])c1cc(Cl)ccc1Cl [1,4-dichloro-2-nitrobenzene]	135.00 °C
ClCCCCCl [1,4-dichlorobutane]	40.00 °C
c1ccc(-c2ccc(-c3ccccc3)cc2)cc1 [1,4-diphenylbenzene]	207.00 °C
Cc1ccc(C)cc1 [1,4-xylene]	27.00 °C
CCCCOCCOCC(C)O (stereo not given) [1-(2-butoxyethoxy)propan-2-ol]	121.00 °C
Cc1ccc(CBr)cc1 [1-(bromomethyl)-4-methylbenzene]	98.00 °C
